Measurements published in ChEMBL document CHEMBL5137114, “Discovery of IHMT-MST1-58 as a Novel, Potent, and Selective MST1 Inhibitor for the Treatment of Type 1/2 Diabetes” (J Med Chem, 2022).
Active and inactive are the calls of the source. No cut-off for these calls is given here.

Legend:
[1] = tested on: Mus musculus; experiment: Antidiabetic activity against 8 hrs fasted multi low dose STZ-induced C57BL/6J mouse model of type 1 diabetes assessed as decrease in fasting blood glucose level at 50 mg/kg, po administered measured immediately (reference value: 19.3 mmol/L); assay type: functional
[2] = Cmax in Sprague-Dawley rat at 1 mg/kg, iv measured up to 12 hrs by LC-MS/MS analysis; assay type: ADME, organism-based; set-up: time < 12 hrs, dose 1 mg/kg, route iv; settings: in vivo
[3] = Toxicity in high fat diet-STZ-induced C57BL/6J mouse model of type 2 diabetes assessed as effect on pancreas morphology at 50 mg/kg, po qd by H and E staining based analysis; assay type: organism-based; settings: in vivo
[4] = AUC (0 to t) in Sprague-Dawley rat at 10 mg/kg, po measured up to 24 hrs by LC-MS/MS analysis; assay type: ADME, organism-based; set-up: time < 24 hrs, dose 10 mg/kg, route po; settings: in vivo
[5] = Half life in Beagle dog at 10 mg/kg, po measured up to 24 hrs by LC-MS/MS analysis; assay type: ADME, organism-based, Canis lupus familiaris; settings: in vivo
[6] = tested on: Mus musculus; experiment: Antidiabetic activity against high fat diet-STZ-induced C57BL/6J mouse model of type 2 diabetes assessed as improvement in water consumption at 50 mg/kg, po qd administered upto 106 days in presence of metformin; assay type: functional, organism-based; settings: time <= 106.0 day
[7] = tested on: Mus musculus; experiment: Antidiabetic activity in multi low dose STZ-induced C57BL/6J mouse model of type 1 diabetes assessed as reduction in HbA1c level at 50 mg/kg, po qd administered in presence of metformin (reference value: 7.6 %); assay type: functional; set-up: scale not given: the % may be the effect or the level left
[8] = tested on: RIN-m5F; experiment: Protection against IFN-gamma-induced cell damage in rat RIN-m5F cells assessed as increase in cell survival at 0.03 to 0.3 uM incubated for 48 hrs by Cell Titer-Glo assay; assay type: functional, cell-based; settings: dose 0.03-0.3 µM
[9] = Oral bioavailability in mouse at 10 mg/kg measured up to 24 hrs by LC-MS/MS analysis; assay type: ADME, organism-based; settings: in vivo
[10] = tested on: Mus musculus; experiment: Antidiabetic activity against 8 hrs fasted multi low dose STZ-induced C57BL/6J mouse model of type 1 diabetes assessed as decrease in fasting blood glucose level at 50 mg/kg, po administered for 77 days in presence of metformin (reference value: 22.3 mmol/L); assay type: functional; settings: time 77 day
[11] = tested on: INS1; experiment: Cytotoxicity against rat INS1 cells at 10 uM incubated for 72 hrs by Cell Titer-Glo assay; assay type: toxicity, cell-based; settings: ins1, 72 h
[12] = Toxicity in multi low dose STZ-induced C57BL/6J mouse model of type 1 diabetes assessed as effect on pancreas morphology at 50 mg/kg, po qd by H and E staining based analysis; assay type: organism-based; settings: in vivo
[13] = Half life in mouse at 1 mg/kg, iv measured up to 12 hrs by LC-MS/MS analysis; assay type: ADME, organism-based; settings: in vivo
[14] = Cmax in mouse Pancreas at 50 mg/kg, po measured up to 24 hrs by LC-MS/MS analysis; assay type: ADME, organism-based; set-up: dose 50 mg/kg, time < 24 hrs, route po
[15] = tested on: Mus musculus; experiment: Antidiabetic activity in multi low dose STZ-induced C57BL/6J mouse model of type 1 diabetes assessed as reduction in HbA1c level at 50 mg/kg, po qd (reference value: 7.6 %); assay type: functional; set-up: scale not given: the % may be the effect or the level left
[16] = tested on: Mus musculus; experiment: Antidiabetic activity against multi low dose STZ-induced C57BL/6J mouse model of type 1 diabetes assessed as food intake at 50 mg/kg, po administered for 78 to 79 days (reference value: 4.7 g/day); assay type: functional; settings: time 78-79 day
[17] = tested on: INS1; experiment: Protection against IFN-gamma-induced cell damage in rat INS1 cells assessed as increase in cell survival at 0.03 to 0.3 uM incubated for 48 hrs by Cell Titer-Glo assay; assay type: functional, cell-based; settings: dose 0.03-0.3 µM
[18] = tested on: Mus musculus; experiment: Antidiabetic activity in high fat diet-STZ-induced C57BL/6J mouse model of type 2 diabetes assessed as reduction in HbA1c level at 50 mg/kg, po qd (reference value: 8.6 %); assay type: functional; set-up: scale not given: the % may be the effect or the level left
[19] = AUC (0 to t) in Beagle dog at 10 mg/kg, po measured up to 24 hrs by LC-MS/MS analysis; assay type: ADME, organism-based, Canis lupus familiaris; set-up: dose 10 mg/kg, time < 24 hrs, route po; settings: in vivo
[20] = Cmax in Beagle dog at 10 mg/kg, po measured up to 24 hrs by LC-MS/MS analysis; assay type: ADME, organism-based, Canis lupus familiaris; set-up: time < 24 hrs, dose 10 mg/kg, route po; settings: in vivo
[21] = tested on: Serine/threonine-protein kinase 4 (Rattus norvegicus); experiment: Inhibition of INF-gamma-stimulated MST1 in rat RIN-m5F cells assessed as reduction in MOB1 autophosphorylation incubated for 12 hrs by Western blotting analysis; settings: dose 0.1-10 µM, DDE = dose-dependent effect
[22] = target: T1, Serine/threonine-protein kinase 3 (Homo sapiens, UniProt Q13188); experiment: Inhibition of recombinant full length N-terminal GST -tagged human MST2 expressed in baculovirus infected Sf9 insect cells using KKSRGDYMTMQIG as substrate incubated for 1 hr in presence of ATP by ADP-Glo luminescent assay
T1 sequence (Q13188 whole entry): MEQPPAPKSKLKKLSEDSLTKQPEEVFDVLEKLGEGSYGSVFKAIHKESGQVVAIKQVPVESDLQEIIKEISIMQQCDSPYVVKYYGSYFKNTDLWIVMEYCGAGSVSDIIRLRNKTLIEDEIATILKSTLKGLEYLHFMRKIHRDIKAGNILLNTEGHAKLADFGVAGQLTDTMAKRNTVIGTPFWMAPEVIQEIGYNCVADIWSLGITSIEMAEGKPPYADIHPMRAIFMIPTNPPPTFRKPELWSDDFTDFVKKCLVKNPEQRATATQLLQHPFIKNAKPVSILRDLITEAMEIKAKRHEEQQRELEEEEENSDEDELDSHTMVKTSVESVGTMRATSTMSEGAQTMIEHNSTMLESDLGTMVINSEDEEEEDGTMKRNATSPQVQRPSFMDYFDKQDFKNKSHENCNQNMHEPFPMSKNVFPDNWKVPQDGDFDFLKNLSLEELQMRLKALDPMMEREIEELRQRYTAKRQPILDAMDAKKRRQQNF

[23] = AUC (0 to t) in mouse at 10 mg/kg, po measured up to 24 hrs by LC-MS/MS analysis; assay type: ADME, organism-based; set-up: time < 24 hrs, dose 10 mg/kg, route po; settings: in vivo
[24] = tested on: INS1; experiment: Protection against TNF-alpha-induced damage in rat INS1 cells assessed as increase in cell survival at 0.03 to 0.3 uM incubated for 48 hrs by Cell Titer-Glo assay; assay type: functional, cell-based; settings: dose 0.03-0.3 µM
[25] = tested on: Mus musculus; experiment: Antidiabetic activity in high fat diet-STZ-induced C57BL/6J mouse model of type 2 diabetes assessed as reduction in HbA1c level at 250 mg/kg, po qd administered in presence of metformin (reference value: 8.6 %); assay type: functional; set-up: scale not given: the % may be the effect or the level left
[26] = Toxicity in multi low dose STZ-induced C57BL/6J mouse model of Type 1 diabetes assessed as effect on body weight at 50 mg/kg, po qd; assay type: organism-based; settings: in vivo
[27] = tested on: Mus musculus; experiment: Antidiabetic activity against 8 hrs fasted multi low dose STZ-induced C57BL/6J mouse model of type 1 diabetes assessed as decrease in fasting blood glucose level at 50 mg/kg, po administered measured immediately in presence of metformin (reference value: 19.3 mmol/L); assay type: functional
[28] = Toxicity in multi low dose STZ-induced C57BL/6J mouse model of type 1 diabetes assessed as effect on pancreas morphology at 50 mg/kg, po qd in presence of metformin by H and E staining based analysis; assay type: organism-based; settings: in vivo

- Cmax [2]: 944 ng/mL
- AUCt [4]: 4858 ng·h/mL
- half-life [5]: 5.79 h
- bioavailability [9]: 111%
- half-life [13]: 1.7 h
- Cmax [14]: 12200 ng/mL
- AUC(0-t) at 24 h [19]: 4940 ng·h/mL
- Cmax [20]: 1110 ng/mL
- inhibition [21]: Dde
- IC50 [22]: 652 nM
- AUC(0-t) at 24 h [23]: 5580 ng·h/mL
Compound: Cc1ccccc1C1C(=O)N(C)c2cnc(Nc3ccc(S(N)(=O)=O)cc3)nc2N1C (stereo not drawn)
- Activity [1]: 19.4 mmol/L
- Activity [3]: Non-Toxic
- Activity [6]: Active
- Activity [7]: 6.1%
- Activity [8]: Active
- Activity [10]: 8.9 mmol/L
- Activity [11]: Non-Toxic
- Activity [12]: Non-Toxic
- Activity [15]: 6.7%
- Activity [16]: 4 g/day
- Activity [17]: Active
- Activity [18]: 7.9%
- Activity [24]: Active
- Activity [25]: 5.9%
- Activity [26]: Non-Toxic
- Activity [27]: 19.3 mmol/L
- Activity [28]: Non-Toxic
